Experimental data reported in US6025467A, “Parathyroid hormone derivatives and their use” (Takeda Chemical Industries, Ltd., priority 1995, dated 2000).
Non-standard residues stand in square brackets, D forms with d. Residues, ends and D or L forms follow the SMILES beside them. No end group written: not given here. 2Nal = N[C@@H](Cc1ccc2ccccc2c1)C(=O)O; Aib = CC(C)(N)C(=O)O

Target: PTH receptor (mouse, UniProt P41593)
Experiment: cell-based or functional assay
Conditions: not given

cAMP increase (pmol/well) | Molecule
2.65 | SVSEIQLMHD[2Nal]GKHLNSMERVEWLRKKLQDVHNF [[Asp^10, Ala(2-Naph)^11 ] hPTH(1-34)]
0.6 | SVSEIQLMHDLGKHLNSMERVEWLRKKLQDVHNF [[Asp^10 ] hPTH(1-34)]
1.81 | SVSEIQLMHELGKHLNSMERVEWLRKKLQDVHNF [[Glu^10 ] hPTH(1-34)]
2.58 | SVSEIQLMHDFGKHLNSMERVEWLRKKLQDVHNF [[Asp^10, Phe^11 ] hPTH(1-34)]

Tested on: Sprangue Dawley rats
Experiment: Increase in femur bone weight in rats after subcutaneous dosing
Assay type: in vivo, rat
Conditions: 4.9 nmol/kg a day subcutaneously for two weeks; four-week-old male rats; dried right femur weight compared with vehicle group
Method: To four-week-old male Sprangue Dawley rats, the compounds synthesized in Example 1 […], and increases in the bone weight in their femurs were compared with that of a group to which a vehicle (0.15M NaCl, 0.001N hydrochloric acid and 2% heat-inactivated rat serum) was given. After administration, their right femurs were taken out, and the tissues around them were removed. Then, the femurs were dried at 100° C. for 3 hours and weighed.

Molecule | bone increase [mg]
CC[C@H](C)[C@H](NC(=O)[C@H](CCC(=O)O)NC(=O)[C@H](CO)NC(=O)[C@@H](NC(=O)[C@@H](N)CO)C(C)C)C(=O)N[C@@H](CCC(N)=O)C(=O)N[C@@H](CC(C)C)C(=O)N[C@@H](CCSC)C(=O)N[C@@H](Cc1c[nH]cn1)C(=O)N[C@@H](CCC(=O)O)C(=O)N[C@@H](Cc1ccccc1)C(=O)N[C@H](C)C(=O)N[C@@H](CCCCN)C(=O)N[C@@H](Cc1c[nH]cn1)C(=O)N[C@@H](CC(C)C)C(=O)N[C@@H](CC(N)=O)C(=O)N[C@@H](CO)C(=O)N[C@@H](CCSC)C(=O)N[C@@H](CCC(=O)O)C(=O)N[C@@H](CCCNC(=N)N)C(=O)N[C@H](C(=O)N[C@@H](CCC(=O)O)C(=O)N[C@@H](Cc1c[nH]c2ccccc12)C(=O)N[C@@H](CC(C)C)C(=O)N[C@@H](CCCNC(=N)N)C(=O)N[C@@H](CCCCN)C(=O)N[C@@H](CCCCN)C(=O)N[C@@H](CC(C)C)C(=O)N[C@@H](CCC(N)=O)C(=O)N[C@@H](CC(=O)O)C(=O)N[C@H](C(=O)N[C@@H](Cc1c[nH]cn1)C(=O)N[C@@H](CC(N)=O)C(=O)N[C@@H](Cc1ccccc1)C(=O)O)C(C)C)C(C)C [(10), [Glu^10, Phe^11, D-Ala^12] hPTH(1-34)] (H-SVSEIQLMHEF[dA]KHLNSMERVEWLRKKLQDVHNF-OH) | 19.4
CC[C@H](C)[C@H](NC(=O)[C@H](CCC(=O)O)NC(=O)[C@H](CO)NC(=O)[C@@H](NC(=O)[C@@H](N)CO)C(C)C)C(=O)N[C@@H](CCC(N)=O)C(=O)N[C@@H](CC(C)C)C(=O)N[C@@H](CCSC)C(=O)N[C@@H](Cc1c[nH]cn1)C(=O)N[C@@H](CCC(=O)O)C(=O)N[C@@H](CC(C)C)C(=O)NCC(=O)N[C@@H](CCCCN)C(=O)N[C@@H](Cc1c[nH]cn1)C(=O)N[C@@H](CC(C)C)C(=O)N[C@@H](CO)C(=O)N[C@@H](CO)C(=O)N[C@@H](CCSC)C(=O)N[C@@H](CCC(=O)O)C(=O)N[C@@H](CCCNC(=N)N)C(=O)N[C@H](C(=O)N[C@@H](CCC(=O)O)C(=O)N[C@@H](Cc1c[nH]c2ccccc12)C(=O)N[C@@H](CC(C)C)C(=O)N[C@@H](CCCNC(=N)N)C(=O)N[C@@H](CCCCN)C(=O)N[C@@H](CCCCN)C(=O)N[C@@H](CC(C)C)C(=O)N[C@@H](CCC(N)=O)C(=O)N[C@@H](CC(=O)O)C(=O)N[C@H](C(=O)N[C@@H](Cc1c[nH]cn1)C(=O)N[C@@H](CC(N)=O)C(=O)N[C@@H](Cc1ccccc1)C(=O)O)C(C)C)C(C)C [(15), [Glu^10, Ser^16] hPTH(1-34)] (H-SVSEIQLMHELGKHLSSMERVEWLRKKLQDVHNF-OH) | 15.1
CC[C@H](C)[C@H](NC(=O)[C@H](CCC(=O)O)NC(=O)[C@H](CO)NC(=O)[C@@H](NC(=O)[C@@H](N)CO)C(C)C)C(=O)N[C@@H](CCC(N)=O)C(=O)N[C@@H](CC(C)C)C(=O)N[C@@H](CCSC)C(=O)N[C@@H](Cc1c[nH]cn1)C(=O)N[C@@H](CCC(=O)O)C(=O)N[C@@H](Cc1ccccc1)C(=O)NCC(=O)N[C@@H](CCCCN)C(=O)N[C@@H](Cc1c[nH]cn1)C(=O)N[C@@H](CC(C)C)C(=O)N[C@@H](CCCCN)C(=O)N[C@@H](CO)C(=O)N[C@@H](CCSC)C(=O)N[C@@H](CCC(=O)O)C(=O)N[C@@H](CCCNC(=N)N)C(=O)N[C@H](C(=O)N[C@@H](CCC(=O)O)C(=O)N[C@@H](Cc1c[nH]c2ccccc12)C(=O)N[C@@H](CC(C)C)C(=O)N[C@@H](CCCNC(=N)N)C(=O)N[C@@H](CCCCN)C(=O)N[C@@H](CCC(N)=O)C(=O)N[C@@H](CC(C)C)C(=O)N[C@@H](CCC(N)=O)C(=O)N[C@@H](CC(=O)O)C(=O)N[C@H](C(=O)N[C@@H](Cc1c[nH]cn1)C(=O)N[C@@H](CC(N)=O)C(=O)N[C@@H](Cc1ccccc1)C(=O)O)C(C)C)C(C)C [(17), [Glu^10, Phe^11, Lys^16, Gln^27] hPTH(1-34)] (H-SVSEIQLMHEFGKHLKSMERVEWLRKQLQDVHNF-OH) | 12.4
CC[C@H](C)[C@H](NC(=O)[C@H](CCC(=O)O)NC(=O)[C@H](CO)NC(=O)[C@@H](NC(=O)[C@@H](N)CO)C(C)C)C(=O)N[C@@H](CCC(N)=O)C(=O)N[C@@H](CC(C)C)C(=O)N[C@@H](CCSC)C(=O)N[C@@H](Cc1c[nH]cn1)C(=O)N[C@@H](CC(=O)O)C(=O)N[C@@H](Cc1ccccc1)C(=O)NCC(=O)N[C@@H](CCCCN)C(=O)N[C@@H](Cc1c[nH]cn1)C(=O)N[C@@H](CC(C)C)C(=O)N[C@@H](CCCCN)C(=O)N[C@@H](CCCCN)C(=O)N[C@@H](CCSC)C(=O)N[C@@H](CCC(=O)O)C(=O)N[C@@H](CCCNC(=N)N)C(=O)N[C@H](C(=O)N[C@@H](CCC(=O)O)C(=O)N[C@@H](Cc1c[nH]c2ccccc12)C(=O)N[C@@H](CC(C)C)C(=O)N[C@@H](CCCNC(=N)N)C(=O)N[C@@H](CCCCN)C(=O)N[C@@H](CCC(N)=O)C(=O)N[C@@H](CC(C)C)C(=O)N[C@@H](CCC(N)=O)C(=O)NC(C)(C)C(=O)N[C@H](C(=O)N[C@@H](Cc1c[nH]cn1)C(=O)N[C@@H](CC(N)=O)C(=O)N[C@@H](Cc1ccccc1)C(=O)O)C(C)C)C(C)C [(19), [Asp^10, Phe^11, Lys^16,17, Gln^2 7, Aib^30] hPTH(1-34)] (H-SVSEIQLMHDFGKHLKKMERVEWLRKQLQ[Aib]VHNF-OH) | 16.9
CC[C@H](C)[C@H](NC(=O)[C@H](CCC(=O)O)NC(=O)[C@H](CO)NC(=O)[C@@H](NC(=O)[C@@H](N)CO)C(C)C)C(=O)N[C@@H](CCC(N)=O)C(=O)N[C@@H](CC(C)C)C(=O)N[C@@H](CCSC)C(=O)N[C@@H](Cc1c[nH]cn1)C(=O)N[C@@H](CCC(=O)O)C(=O)N[C@@H](CC(C)C)C(=O)NCC(=O)N[C@@H](CCCN)C(=O)N[C@@H](Cc1c[nH]cn1)C(=O)N[C@@H](CC(C)C)C(=O)N[C@@H](CC(N)=O)C(=O)N[C@@H](CO)C(=O)N[C@@H](CCSC)C(=O)N[C@@H](CCC(=O)O)C(=O)N[C@@H](CCCNC(=N)N)C(=O)N[C@H](C(=O)N[C@@H](CCC(=O)O)C(=O)N[C@@H](Cc1c[nH]c2ccccc12)C(=O)N[C@@H](CC(C)C)C(=O)N[C@@H](CCCNC(=N)N)C(=O)N[C@@H](CCCCN)C(=O)N[C@@H](CCCCN)C(=O)N[C@@H](CC(C)C)C(=O)N[C@@H](CCC(N)=O)C(=O)N[C@@H](CC(=O)O)C(=O)N[C@H](C(=O)N[C@@H](Cc1c[nH]cn1)C(=O)N[C@@H](CC(N)=O)C(=O)N[C@@H](Cc1ccccc1)C(=O)O)C(C)C)C(C)C [(22), [Glu^10, Orn^13] hPTH(1-34)] | 14.8

Same assay, conditions: 4.9 nmol/kg a day subcutaneously; continuously administered for 4 weeks; dried right femur weight compared with vehicle group

Molecule | bone increase [mg]
CC[C@H](C)[C@H](NC(=O)[C@H](CCC(=O)O)NC(=O)[C@H](CO)NC(=O)[C@@H](NC(=O)[C@@H](N)CO)C(C)C)C(=O)N[C@@H](CCC(N)=O)C(=O)N[C@@H](CC(C)C)C(=O)N[C@@H](CCSC)C(=O)N[C@@H](Cc1c[nH]cn1)C(=O)N[C@@H](CC(=O)O)C(=O)N[C@@H](CCCCN)C(=O)NCC(=O)N[C@@H](CCCCN)C(=O)N[C@@H](Cc1c[nH]cn1)C(=O)N[C@@H](CC(C)C)C(=O)N[C@@H](CC(N)=O)C(=O)N[C@@H](CO)C(=O)N[C@@H](CCSC)C(=O)N[C@@H](CCC(=O)O)C(=O)N[C@@H](CCCNC(=N)N)C(=O)N[C@H](C(=O)N[C@@H](CCC(=O)O)C(=O)N[C@@H](Cc1c[nH]c2ccccc12)C(=O)N[C@@H](CC(C)C)C(=O)N[C@@H](CCCNC(=N)N)C(=O)N[C@@H](CCCCN)C(=O)N[C@@H](CCCCN)C(=O)N[C@@H](CC(C)C)C(=O)N[C@@H](CCC(N)=O)C(=O)N[C@@H](CC(=O)O)C(=O)N[C@H](C(=O)N[C@@H](Cc1c[nH]cn1)C(=O)N[C@@H](CC(N)=O)C(=O)N[C@@H](Cc1ccccc1)C(=O)O)C(C)C)C(C)C [(1), [Asp^10, Lys^11] hPTH(1-34)] (H-SVSEIQLMHDKGKHLNSMERVEWLRKKLQDVHNF-OH) | 66.6
